Experimental data from patent US20070259927A1, “Remedy for Diabetes” (Takeda Pharmaceutical Company Limited, priority 2004, published 2007).

Experiments:
Assay type in all cases: in vivo
db/db mouse [1] = test: Experimental Example 1: db/db mouse, powder diet for 3 weeks, pioglitazone and compound A alone or combined; conditions: db/db mice, in powder diet 3 weeks, mean (n=8)±standard deviation; for plasma insulin level / plasma glucose level / plasma insulin/plasma glucose value: day 21; for plasma insulin level / pancreatic insulin content: pioglitazone 0.01(w/w)%, compound A 0.03(w/w)% (½ fumarate); for plasma glucose level: pioglitazone hydrochloride 0.01(w/w)% as pioglitazone, ½ fumarate of compound A 0.03(w/w)% as compound A; for plasma insulin/plasma glucose value: plasma insulin level divided by plasma glucose level; for pancreatic insulin content: pancreas removed day 23
Text: First of all, db/db mice (32 mice) were divided into 4 groups of A to D (8 mice in each group), and a powder diet (trade name: CE-2, Clea Japan, Inc., hereinafter the same) was given to group A (control group), a powder diet containing pioglitazone hydrochloride (0.01(w/w) % as pioglitazone) was given to group B, a powder diet containing ½ fumarate of compound A (0.03(w/w) % as compound A) was given to group C, and a powder diet containing pioglitazone hydrochloride (0.01(w/w) % as pioglitazone) and ½ fumarate of compound A (0.03(w/w) % as compound A) was given to group D, for 3 consecutive weeks.
In addition, a powder diet was given to db/+m mice for 3 consecutive weeks, and the mice were used as group E (normal group).
(§1) In the above-mentioned groups A to E, blood samples were collected from mice on day 21 from the start of the powder diet administration, and plasma glucose level and plasma insulin level were measured. On day 23 from the start of the powder diet administration, the pancreas was removed from the mice, and the pancreatic insulin content was measured.
The plasma glucose level was measured by an enzyme method using L type Wako Glu2 (trade name, Wako Pure Chemical Industries, Ltd.).
In addition, the plasma insulin level was measured by a radioimmunoassay (trade name, ShionoRIA insulin), and the plasma insulin level was divided by the plasma glucose level to determine the plasma insulin/plasma glucose value.
The pancreatic insulin content was measured as follows.
First, the mouse pancreas was disrupted in its 10 times weight of 75% ethanol (containing 0.15 M hydrochloric acid). The obtained disrupted solution was left standing overnight under the shading conditions at 4·^□C, and centrifuged at 15000 rpm for 5 min. The obtained supernatant was appropriately diluted with PBS(−) (phosphate-buffered saline) containing 0.1% BSA (bovine serum albumin). The insulin content of the diluted solution was measured in the same manner as in the above-mentioned plasma insulin level, and the insulin content per pancreatic tissue weight was calculated.
The results are shown in [Table 1] to [Table 4]. The values in the tables show mean (n=8)±standard deviation.

db/db mouse [2] = test: Experimental Example 2: db/db mouse, powder diet for 5 weeks, pioglitazone and vildagliptin alone or combined; conditions: db/db mice, in powder diet 5 weeks, mean (n=8)±standard deviation; for pancreatic insulin content: pancreas removed day 37
Text: First of all, db/db mice (32 mice) were divided into 4 groups of F to I (8 mice in each group), and
a powder diet (trade name: CE-2, Clea Japan, Inc., hereinafter the same) was given to group F (control group), a powder diet containing pioglitazone hydrochloride (0.01 (w/w) % as pioglitazone) was given to group G,
a powder diet containing pioglitazone hydrochloride
In addition, a powder diet was given to db/+m mice for 5 consecutive weeks, and the mice were used as group J (normal group).
as §1, with “F” for “A”, “I,” for “E,”, “35” for “21”, “37” for “23”
The plasma glucose level, plasma insulin level, plasma insulin/plasma glucose value, and the pancreatic insulin content were measured in the same manner as in Experimental Example 1.
The results are shown in [Table 5] to [Table 8]. The values in the tables show mean (n=8)±standard deviation.

db/db mouse [3] = test: Experimental Example 3: db/db mouse, powder diet for 4 weeks, pioglitazone and sitagliptin alone or combined; conditions: db/db mice, in powder diet 4 weeks, mean (n=8)±standard deviation; for plasma insulin level / plasma glucose level / plasma insulin/plasma glucose value: day 28; for plasma insulin level / pancreatic insulin content: pioglitazone 0.01(w/w)%, sitagliptin 0.03(w/w)%; for plasma glucose level: pioglitazone hydrochloride 0.01(w/w)% as pioglitazone, sitagliptin hydrochloride 0.03(w/w)% as sitagliptin; for plasma insulin/plasma glucose value: plasma insulin level divided by plasma glucose level; for pancreatic insulin content: pancreas removed day 29
Text: First of all, db/db mice (32 mice) were divided into 4 groups of […] mice in each group), and a powder diet (trade name: CE-2, Clea Japan, Inc., hereinafter the same) was given to group K (control group), a powder diet containing pioglitazone hydrochloride (0.01(w/w) % as pioglitazone) was given to group L, a powder diet containing sitagliptin hydrochloride (0.03(w/w) % as sitagliptin) was given to group M, and a powder diet containing pioglitazone hydrochloride (0.01(w/w) % as pioglitazone) and sitagliptin hydrochloride (0.03(w/w) % as sitagliptin) was given to group N, for 4 consecutive weeks. In addition, a powder diet was given to db/+m mice for 4 consecutive weeks, and the mice were used as group 0 (normal group). In the above-mentioned groups K to N, blood samples were collected from mice on day 28 from the start of the powder diet administration, and plasma glucose level and plasma insulin level were measured. […] The results are shown in [Table 9] to [Table 12]. The values in the tables show mean (n=8)±standard deviation.

[4] = pioglitazone 0.01(w/w)%, vildagliptin 0.03(w/w)%

Compound	plasma insulin level (db/db mouse [1])	plasma glucose level (db/db mouse [1])	plasma insulin/plasma glucose value (db/db mouse [1])	pancreatic insulin content (db/db mouse [1])	plasma insulin level (db/db mouse [2]; day 35, pioglitazone 0.01(w/w)%, vildagliptin 0.03(w/w)%)	plasma glucose level (db/db mouse [2]; day 35, pioglitazone hydrochloride 0.01(w/w)% as pioglitazone, vildagliptin 0.03(w/w)%)	plasma insulin/plasma glucose value (db/db mouse [2]; day 35, plasma insulin level divided by plasma glucose level)	pancreatic insulin content (db/db mouse [2]; [4])	plasma insulin level (db/db mouse [3])	plasma glucose level (db/db mouse [3])	plasma insulin/plasma glucose value (db/db mouse [3])	pancreatic insulin content (db/db mouse [3])
CCc1ccc(CCOc2ccc(CC3SC(=O)NC3=O)cc2)nc1 (stereo not drawn) [pioglitazone]	289.2 ± 261.8 μU/mL	411.0 ± 54.4 mg/dL	72.9 ± 64.5 μU/mg	2314.2 ± 1285.4 μU/mg tissue	200.2 ± 78.0 μU/mL	348.5 ± 97.4 mg/dL	63.9 ± 35.9 μU/mg	834.7 ± 275.3 μU/mg tissue	739.5 ± 472.8 μU/mL	341.0 ± 100.6 mg/dL	261.7 ± 217.9 μU/mg	1117.2 ± 479.7 μU/mg tissue
N[C@@H](CC(=O)N1CCn2c(nnc2C(F)(F)F)C1)Cc1cc(F)c(F)cc1F [sitagliptin]	–	–	–	–	–	–	–	–	103.1 ± 47.2 μU/mL	492.3 ± 38.3 mg/dL	21.6 ± 11.3 μU/mg	331.1 ± 79.6 μU/mg tissue
N#C[C@@H]1CCCN1C(=O)CNC12CC3CC(CC(O)(C3)C1)C2 [vildagliptin, (2S)-1-{[(3-hydroxy-1-adamantyl)amino]acetyl}-2-cyano-pyrrolidine]	–	–	–	–	–	–	–	559.2 ± 169.2 μU/mg tissue	–	–	–	–
Cc1ccc(-c2c(CN)c(CC(C)C)nc(C)c2C(=O)O)cc1 [compound A, 5-(aminomethyl)-6-isobutyl-2-methyl-4-(4-methylphenyl)nicotinic acid]	135.5 ± 115.4 μU/mL	502.0 ± 54.3 mg/dL	29.0 ± 28.4 μU/mg	918.4 ± 328.6 μU/mg tissue	–	–	–	–	–	–	–	–
